Measured values as given in patent US20090264384A1, “INDOLE, BENZIMIDAZOLE, AND BENZOLACTAM BORONIC ACID COMPOUNDS, ANALOGS THEREOF AND METHODS OF USE THEREOF” (Nuada, Inc., priority 2004, published 2009).

Key:
[1] = biological target: hERG (Homo sapiens, UniProt Q12809); experiment: ADME-Tox: QT Prolongation, HERG (patch-clamp); details: human, HEK-293 cells stably expressing HERG
[2] = biological target: HERG channel (Homo sapiens, UniProt Q12809); experiment: ADME-Tox: QT Prolongation, HERG (patch-clamp)
[3] = biological target: T1, Phosphodiesterase 2(h) (Homo sapiens, UniProt O00408); experiment: Phosphodiesterase 2(h) enzyme assay; assay type: biochemical; details: 1.0E−05 M
T1 construct: differentiated U-; endogenous in cells; host or cells: differentiated U-937 cells

[4] = biological target: T2, Glucocorticoid(h) (GR) (Homo sapiens, UniProt P04150); experiment: Glucocorticoid(h) (GR) binding assay; details: 1.0E−05 M; read-out: % Inhibition of Control Specific Binding
T2 construct: Glucocorticoid(h); IM-9 cells; dexamethasone; Clark et al. (1996); endogenous in cells; host or cells: IM-9 cells (cytosol)

[5] = system: I1 (peripheral); experiment: I1 (peripheral) binding assay; set-up: species or system bovine; details: 1.0E−05 M
[6] = system: AMPA; experiment: AMPA binding assay; set-up: species or system rat; details: 1.0E−05 M
[7] = biological target: T3, Acetylcholinesterase(h) (Homo sapiens, UniProt P22303); experiment: Acetylcholinesterase(h) enzyme assay; assay type: biochemical; details: 1.0E−05 M
T3 construct: host or cells: HEK-293 cells

[8] = biological target: T4, A3(h) (Homo sapiens, UniProt P0DMS8); experiment: A3(h) binding assay; details: read-out: % Inhibition of Control Specific Binding
T4 construct: expressed in transfected cells; host or cells: HEK-293 cells

[9] = system: SK^+Ca channel; experiment: SK^+Ca channel binding assay; set-up: species or system rat; details: 1.0E−05 M
[10] = system: PCP; experiment: PCP binding assay; set-up: species or system rat; details: 1.0E−05 M
[11] = biological target: T5, B1(h) (Homo sapiens, UniProt P46663); experiment: B1(h) binding assay; details: 1.0E−05 M; read-out: % Inhibition of Control Specific Binding
T5 construct: expressed in transfected cells; host or cells: CHO cells

[12] = biological target: D4.4(h) (Homo sapiens, UniProt P21917); experiment: biochemical; details: 1.0E−05 M; read-out: % Inhibition of Control Specific Binding
Chain of D4.4(h) (P21917 whole entry): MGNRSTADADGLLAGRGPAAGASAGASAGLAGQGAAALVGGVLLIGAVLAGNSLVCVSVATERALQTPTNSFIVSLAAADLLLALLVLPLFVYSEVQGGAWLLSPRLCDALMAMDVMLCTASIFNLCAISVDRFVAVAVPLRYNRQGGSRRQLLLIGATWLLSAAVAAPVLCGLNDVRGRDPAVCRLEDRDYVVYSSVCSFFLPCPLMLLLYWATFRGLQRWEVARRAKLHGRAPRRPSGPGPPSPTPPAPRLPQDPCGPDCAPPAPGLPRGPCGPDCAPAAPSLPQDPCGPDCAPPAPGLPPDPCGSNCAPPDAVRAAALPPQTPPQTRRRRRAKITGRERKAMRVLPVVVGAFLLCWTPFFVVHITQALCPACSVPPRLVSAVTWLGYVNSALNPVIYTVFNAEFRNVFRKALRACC

Chain of HERG channel (Q12809 whole entry): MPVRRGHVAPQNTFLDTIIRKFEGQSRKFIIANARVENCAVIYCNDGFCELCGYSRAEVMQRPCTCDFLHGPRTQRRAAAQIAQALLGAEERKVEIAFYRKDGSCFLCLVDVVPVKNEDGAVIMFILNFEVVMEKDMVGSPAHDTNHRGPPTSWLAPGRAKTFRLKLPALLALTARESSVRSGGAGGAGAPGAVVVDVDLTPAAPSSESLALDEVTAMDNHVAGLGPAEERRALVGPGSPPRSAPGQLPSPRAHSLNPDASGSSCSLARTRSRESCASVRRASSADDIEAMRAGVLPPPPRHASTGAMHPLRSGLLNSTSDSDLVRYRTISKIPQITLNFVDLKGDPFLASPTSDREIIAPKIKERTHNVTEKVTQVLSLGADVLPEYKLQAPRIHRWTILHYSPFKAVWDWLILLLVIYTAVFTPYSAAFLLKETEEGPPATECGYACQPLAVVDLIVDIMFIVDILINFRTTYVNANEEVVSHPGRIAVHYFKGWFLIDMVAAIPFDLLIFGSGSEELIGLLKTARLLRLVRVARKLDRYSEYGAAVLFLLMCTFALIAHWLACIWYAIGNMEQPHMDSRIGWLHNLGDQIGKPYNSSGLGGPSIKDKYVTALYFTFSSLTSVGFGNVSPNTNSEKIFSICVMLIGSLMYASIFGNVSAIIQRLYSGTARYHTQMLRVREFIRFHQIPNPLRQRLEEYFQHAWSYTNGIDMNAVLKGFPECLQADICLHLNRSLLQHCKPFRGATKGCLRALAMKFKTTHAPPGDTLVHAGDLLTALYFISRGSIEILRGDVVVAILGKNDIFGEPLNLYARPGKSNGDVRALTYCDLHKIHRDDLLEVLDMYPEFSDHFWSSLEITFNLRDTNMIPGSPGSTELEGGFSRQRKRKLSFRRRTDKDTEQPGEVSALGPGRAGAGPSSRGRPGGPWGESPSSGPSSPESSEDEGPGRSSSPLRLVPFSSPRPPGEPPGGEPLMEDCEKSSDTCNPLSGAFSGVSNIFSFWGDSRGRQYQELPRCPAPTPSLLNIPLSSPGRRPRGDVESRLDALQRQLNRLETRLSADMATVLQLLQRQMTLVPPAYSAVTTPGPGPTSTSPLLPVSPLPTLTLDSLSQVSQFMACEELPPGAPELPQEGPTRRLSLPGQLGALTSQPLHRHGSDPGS
T1 sequence (O00408 whole entry): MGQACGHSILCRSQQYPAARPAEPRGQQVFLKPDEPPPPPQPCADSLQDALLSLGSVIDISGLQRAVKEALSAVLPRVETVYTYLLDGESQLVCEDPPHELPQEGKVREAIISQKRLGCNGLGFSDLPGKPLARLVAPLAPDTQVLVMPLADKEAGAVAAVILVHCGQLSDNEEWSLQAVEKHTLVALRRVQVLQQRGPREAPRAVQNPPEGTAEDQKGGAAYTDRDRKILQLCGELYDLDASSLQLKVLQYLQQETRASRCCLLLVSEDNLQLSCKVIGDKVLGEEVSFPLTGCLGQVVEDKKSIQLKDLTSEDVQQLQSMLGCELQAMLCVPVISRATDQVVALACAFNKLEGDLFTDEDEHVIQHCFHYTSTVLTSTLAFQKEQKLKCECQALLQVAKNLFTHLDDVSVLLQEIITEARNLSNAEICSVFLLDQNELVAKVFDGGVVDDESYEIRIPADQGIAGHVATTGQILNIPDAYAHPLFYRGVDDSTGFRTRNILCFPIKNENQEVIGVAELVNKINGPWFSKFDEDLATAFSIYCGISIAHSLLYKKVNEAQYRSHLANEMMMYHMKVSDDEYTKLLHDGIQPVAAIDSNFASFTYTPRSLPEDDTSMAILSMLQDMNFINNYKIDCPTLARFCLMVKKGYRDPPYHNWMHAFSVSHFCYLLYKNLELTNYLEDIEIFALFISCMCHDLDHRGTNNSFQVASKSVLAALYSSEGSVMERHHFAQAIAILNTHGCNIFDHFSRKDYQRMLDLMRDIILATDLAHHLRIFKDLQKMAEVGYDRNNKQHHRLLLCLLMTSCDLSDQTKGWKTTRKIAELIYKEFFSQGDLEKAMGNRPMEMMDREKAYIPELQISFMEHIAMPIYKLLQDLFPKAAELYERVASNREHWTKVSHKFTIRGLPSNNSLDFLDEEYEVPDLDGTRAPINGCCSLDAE
T2 sequence (P04150 whole entry): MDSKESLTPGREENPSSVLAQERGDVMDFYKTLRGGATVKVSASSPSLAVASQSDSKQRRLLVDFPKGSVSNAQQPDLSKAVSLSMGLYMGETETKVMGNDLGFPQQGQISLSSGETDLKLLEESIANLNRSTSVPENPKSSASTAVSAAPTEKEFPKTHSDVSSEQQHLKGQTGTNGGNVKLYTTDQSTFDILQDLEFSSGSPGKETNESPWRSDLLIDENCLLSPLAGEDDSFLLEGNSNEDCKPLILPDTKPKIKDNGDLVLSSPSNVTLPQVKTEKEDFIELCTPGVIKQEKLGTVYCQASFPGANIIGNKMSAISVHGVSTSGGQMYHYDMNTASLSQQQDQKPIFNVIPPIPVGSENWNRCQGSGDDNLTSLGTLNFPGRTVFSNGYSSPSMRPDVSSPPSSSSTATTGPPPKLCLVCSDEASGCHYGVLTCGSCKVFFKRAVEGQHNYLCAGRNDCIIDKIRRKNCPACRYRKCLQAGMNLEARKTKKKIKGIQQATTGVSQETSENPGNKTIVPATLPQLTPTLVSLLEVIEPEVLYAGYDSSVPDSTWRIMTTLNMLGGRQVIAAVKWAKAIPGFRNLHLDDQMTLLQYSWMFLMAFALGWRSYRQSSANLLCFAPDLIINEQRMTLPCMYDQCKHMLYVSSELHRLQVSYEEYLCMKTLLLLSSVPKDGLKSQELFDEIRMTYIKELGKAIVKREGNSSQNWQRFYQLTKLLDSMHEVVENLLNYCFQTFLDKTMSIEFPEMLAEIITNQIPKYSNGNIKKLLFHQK
Chain of hERG (Q12809 whole entry): as the sequence (Q12809 whole entry) above
T4 sequence (P0DMS8 whole entry): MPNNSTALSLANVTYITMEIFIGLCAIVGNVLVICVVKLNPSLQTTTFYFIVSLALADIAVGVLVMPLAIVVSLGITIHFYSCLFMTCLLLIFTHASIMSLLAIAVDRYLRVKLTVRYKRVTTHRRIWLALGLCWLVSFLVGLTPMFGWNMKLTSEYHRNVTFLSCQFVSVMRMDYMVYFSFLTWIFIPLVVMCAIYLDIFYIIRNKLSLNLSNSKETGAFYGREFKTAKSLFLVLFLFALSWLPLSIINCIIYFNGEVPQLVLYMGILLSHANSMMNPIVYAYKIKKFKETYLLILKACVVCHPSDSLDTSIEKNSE

N#Cc1ccc2c(ccn2CCCCCB(O)O)c1 [Example 20, 5-(5-cyano-1H-indol-1-yl)pentylboronic acid]
inhibition at 1 µM [1]: 31.1%
Potency Ranking ([2]; HERG-channel blocker ranking, from 1 μM test (Table 17)): Moderate (Moderate, 1 μM<IC50<10 μM)
HERG-channel blocker potency class ([2]; general potency ranking system (Roche et al.)): moderate
% Inhibition of Control Values [3]: 95%
inhibition at 10 µM [4]: -7%
% Inhibition of Control Specific Binding [5]: −6%
% Inhibition of Control Specific Binding [6]: −3%
% Inhibition of Control Values [7]: 11%
inhibition at 10 µM [8]: -12%
% Inhibition of Control Specific Binding [9]: −15%
% Inhibition of Control Specific Binding [10]: 5%
inhibition at 10 µM [11]: -5%
inhibition at 10 µM [12]: 1%
